Test results: article PMC6311682, “Design, Synthesis, and Biological Evaluation of 2-Nitroimidazopyrazin-one/-es with Antitubercular and Antiparasitic Activity” (Journal of Medicinal Chemistry, 2018)
≈ marks a conversion by molar mass, not a printed value.

Test system: not listed separately
Assay: Mammalian cytotoxicity assay (resazurin), HepG2
Details: human, HepG2 cells

| Compound | CC50 at 24 h [µM] |
| --- | --- |
| Cc1c(C)n2cc([N+](=O)[O-])nc2c(=O)n1Cc1ccccc1OC(F)(F)F [26h, 5,6-Dimethyl-2-nitro-7-(2-(trifluoromethoxy)benzyl)imidazo[1,2-a]pyrazin-8(7H)-one] | > 100 |
| Cc1nc(OCc2ccccc2OC(F)(F)F)c2nc([N+](=O)[O-])cn2c1C [26i, 5,6-Dimethyl-2-nitro-8-((2-(trifluoromethoxy)benzyl)oxy)imidazo[1,2-a]pyrazine] | > 100 |
| NC(=O)c1nc([N+](=O)[O-])cn1Cc1ccccc1 [28b] | > 100 |
| Cc1ccc(Cn2cc([N+](=O)[O-])nc2C(N)=O)cc1 [28d] | > 100 |

Test system: not listed separately
Assay: Kinetic solubility determination by LC-UV
Details: PBS, pH 7.4, Solubility µM (PBS), PBS pH 7.4, 24 h, room temperature, 1% DMSO

| Compound | solubility at 24 h [µM] |
| --- | --- |
| O=c1[nH]ccn2cc([N+](=O)[O-])nc12 [17a, 2-Nitroimidazo[1,2-a]pyrazin-8(7H)-one] | > 200 |
| Cc1ccc(Cn2ccn3cc([N+](=O)[O-])nc3c2=O)cc1 [17d, 7-(4-Methylbenzyl)-2-nitroimidazo[1,2-a]pyrazin-8(7H)-one] | < 5 |
| Cc1c(C)n2cc([N+](=O)[O-])nc2c(=O)n1Cc1ccccc1OC(F)(F)F [26h, 5,6-Dimethyl-2-nitro-7-(2-(trifluoromethoxy)benzyl)imidazo[1,2-a]pyrazin-8(7H)-one] | 4.6 ± 0.6 (≈ 1.76 µg/mL) |
| Cc1nc(OCc2ccccc2OC(F)(F)F)c2nc([N+](=O)[O-])cn2c1C [26i, 5,6-Dimethyl-2-nitro-8-((2-(trifluoromethoxy)benzyl)oxy)imidazo[1,2-a]pyrazine] | < 5 |

Same assay, conditions: water, Solubility µM (H2O), 24 h, room temperature, 1% DMSO

| Compound | solubility at 24 h [µM] |
| --- | --- |
| O=c1[nH]ccn2cc([N+](=O)[O-])nc12 [17a, 2-Nitroimidazo[1,2-a]pyrazin-8(7H)-one] | > 200 |
| Cc1ccc(Cn2ccn3cc([N+](=O)[O-])nc3c2=O)cc1 [17d, 7-(4-Methylbenzyl)-2-nitroimidazo[1,2-a]pyrazin-8(7H)-one] | < 5 |
| Cc1c(C)n2cc([N+](=O)[O-])nc2c(=O)n1Cc1ccccc1OC(F)(F)F [26h, 5,6-Dimethyl-2-nitro-7-(2-(trifluoromethoxy)benzyl)imidazo[1,2-a]pyrazin-8(7H)-one] | 7.28 ± 0.695 (≈ 2.78 µg/mL) |
| Cc1nc(OCc2ccccc2OC(F)(F)F)c2nc([N+](=O)[O-])cn2c1C [26i, 5,6-Dimethyl-2-nitro-8-((2-(trifluoromethoxy)benzyl)oxy)imidazo[1,2-a]pyrazine] | < 5 |

Test system: L. donovani MHOM/IN/80/DD8 (ATCC50212)
Assay: L. donovani DD8 intracellular (THP-1) amastigote assay
Type: cell-based
Details: Leishmania donovani, read-out: antiparasitic IC50 L. donovani

| Compound | IC50 [µM] |
| --- | --- |
| O=c1[nH]ccn2cc([N+](=O)[O-])nc12 [17a, 2-Nitroimidazo[1,2-a]pyrazin-8(7H)-one] | > 80 |
| Cc1ccc(Cn2ccn3cc([N+](=O)[O-])nc3c2=O)cc1 [17d, 7-(4-Methylbenzyl)-2-nitroimidazo[1,2-a]pyrazin-8(7H)-one] | > 80 |

Same assay, conditions: Leishmania donovani, read-out: antiparasitic pIC50 ± SE L. donovani (converted)

| Compound | IC50 [µM] |
| --- | --- |
| O=c1[nH]ccn2cc([N+](=O)[O-])nc12 [17a, 2-Nitroimidazo[1,2-a]pyrazin-8(7H)-one] | > 79.4 |
| Cc1ccc(Cn2ccn3cc([N+](=O)[O-])nc3c2=O)cc1 [17d, 7-(4-Methylbenzyl)-2-nitroimidazo[1,2-a]pyrazin-8(7H)-one] | > 79.4 |

Test system: ESKAPE pathogens S. aureus (ATCC 43300), E. coli (ATCC 25922), K. pneumoniae (ATCC 700603), A. baumannii (ATCC 19606), P. aeruginosa (ATCC 27853)
Assay: Broth microdilution MIC assay, ESKAPE pathogens
Type: cell-based
Details: not given

| Compound | antibacterial MIC ESKAPE [µg/mL] |
| --- | --- |
| O=c1[nH]ccn2cc([N+](=O)[O-])nc12 [17a, 2-Nitroimidazo[1,2-a]pyrazin-8(7H)-one] | >32 |
| Cc1ccc(Cn2ccn3cc([N+](=O)[O-])nc3c2=O)cc1 [17d, 7-(4-Methylbenzyl)-2-nitroimidazo[1,2-a]pyrazin-8(7H)-one] | >32 |
| Cc1c(C)n2cc([N+](=O)[O-])nc2c(=O)n1Cc1ccccc1OC(F)(F)F [26h, 5,6-Dimethyl-2-nitro-7-(2-(trifluoromethoxy)benzyl)imidazo[1,2-a]pyrazin-8(7H)-one] | >32 |
| Cc1nc(OCc2ccccc2OC(F)(F)F)c2nc([N+](=O)[O-])cn2c1C [26i, 5,6-Dimethyl-2-nitro-8-((2-(trifluoromethoxy)benzyl)oxy)imidazo[1,2-a]pyrazine] | >32 |

Test system: not listed separately
Assay: Broth microdilution MIC assay, ESKAPE pathogens
Type: cell-based
Details: S. aureus, E. coli, K. pneumoniae, A. baumannii, P. aeruginosa; read-out: antibacterial MIC ESKAPE

| Compound | MIC [µg/mL] |
| --- | --- |
| O=c1[nH]ccn2cc([N+](=O)[O-])nc12 [17a, 2-Nitroimidazo[1,2-a]pyrazin-8(7H)-one] | > 32 |
| Cc1ccc(Cn2ccn3cc([N+](=O)[O-])nc3c2=O)cc1 [17d, 7-(4-Methylbenzyl)-2-nitroimidazo[1,2-a]pyrazin-8(7H)-one] | > 32 |
| Cc1c(C)n2cc([N+](=O)[O-])nc2c(=O)n1Cc1ccccc1OC(F)(F)F [26h, 5,6-Dimethyl-2-nitro-7-(2-(trifluoromethoxy)benzyl)imidazo[1,2-a]pyrazin-8(7H)-one] | > 32 |
| Cc1nc(OCc2ccccc2OC(F)(F)F)c2nc([N+](=O)[O-])cn2c1C [26i, 5,6-Dimethyl-2-nitro-8-((2-(trifluoromethoxy)benzyl)oxy)imidazo[1,2-a]pyrazine] | > 32 |

Test system: E. histolytica (HM1:IMSS)
Assay: ATP-bioluminescence cell growth and survival assay, E. histolytica trophozoites
Type: cell-based
Details: Entamoeba histolytica, read-out: antiparasitic IC50 E. histolytica

| Compound | IC50 [µM] |
| --- | --- |
| O=c1[nH]ccn2cc([N+](=O)[O-])nc12 [17a, 2-Nitroimidazo[1,2-a]pyrazin-8(7H)-one] | > 25 |

Same assay, conditions: Entamoeba histolytica, read-out: antiparasitic pIC50 ± SE E. histolytica (converted)

| Compound | IC50 [µM] |
| --- | --- |
| O=c1[nH]ccn2cc([N+](=O)[O-])nc12 [17a, 2-Nitroimidazo[1,2-a]pyrazin-8(7H)-one] | > 25.1 |

Test system: C. difficile (630, ATCC BAA-1382)
Assay: Broth microdilution MIC assay, C. difficile
Type: cell-based, Clostridium difficile
Details: 630 ATCC BAA-1382, median MIC

| Compound | antibacterial MIC C. difficile [µg/mL] |
| --- | --- |
| O=c1[nH]ccn2cc([N+](=O)[O-])nc12 [17a, 2-Nitroimidazo[1,2-a]pyrazin-8(7H)-one] | >64 |

Same assay, conditions: Clostridioides difficile, ATCCBAA1382; 630 ATCC BAA-1382, median MIC; read-out: antibacterial MIC C. difficile

| Compound | MIC [µg/mL] |
| --- | --- |
| O=c1[nH]ccn2cc([N+](=O)[O-])nc12 [17a, 2-Nitroimidazo[1,2-a]pyrazin-8(7H)-one] | > 64 |

Test system: C. albicans (ATCC 90028) and C. neoformans (H99, ATCC 208821)
Assay: Broth microdilution MIC assay, fungi
Type: cell-based
Details: not given

| Compound | antifungal MIC [µg/mL] |
| --- | --- |
| Cc1c(C)n2cc([N+](=O)[O-])nc2c(=O)n1Cc1ccccc1OC(F)(F)F [26h, 5,6-Dimethyl-2-nitro-7-(2-(trifluoromethoxy)benzyl)imidazo[1,2-a]pyrazin-8(7H)-one] | >32 |
| Cc1nc(OCc2ccccc2OC(F)(F)F)c2nc([N+](=O)[O-])cn2c1C [26i, 5,6-Dimethyl-2-nitro-8-((2-(trifluoromethoxy)benzyl)oxy)imidazo[1,2-a]pyrazine] | >32 |

Same assay, conditions: Candida albicans, read-out: antifungal MIC

| Compound | MIC [µg/mL] |
| --- | --- |
| Cc1c(C)n2cc([N+](=O)[O-])nc2c(=O)n1Cc1ccccc1OC(F)(F)F [26h, 5,6-Dimethyl-2-nitro-7-(2-(trifluoromethoxy)benzyl)imidazo[1,2-a]pyrazin-8(7H)-one] | > 32 |
| Cc1nc(OCc2ccccc2OC(F)(F)F)c2nc([N+](=O)[O-])cn2c1C [26i, 5,6-Dimethyl-2-nitro-8-((2-(trifluoromethoxy)benzyl)oxy)imidazo[1,2-a]pyrazine] | > 32 |

Test system: not listed separately
Assay: Mammalian cytotoxicity assay (resazurin), HEK293
Details: human, HEK293 cells

| Compound | CC50 at 24 h [µM] |
| --- | --- |
| Cc1c(C)n2cc([N+](=O)[O-])nc2c(=O)n1Cc1ccccc1OC(F)(F)F [26h, 5,6-Dimethyl-2-nitro-7-(2-(trifluoromethoxy)benzyl)imidazo[1,2-a]pyrazin-8(7H)-one] | > 100 |
| Cc1nc(OCc2ccccc2OC(F)(F)F)c2nc([N+](=O)[O-])cn2c1C [26i, 5,6-Dimethyl-2-nitro-8-((2-(trifluoromethoxy)benzyl)oxy)imidazo[1,2-a]pyrazine] | > 100 |
| NC(=O)c1nc([N+](=O)[O-])cn1Cc1ccccc1 [28b] | > 100 |
| Cc1ccc(Cn2cc([N+](=O)[O-])nc2C(N)=O)cc1 [28d] | > 100 |
